Experimental data as given in article PMC10893631, “Receptor-based pharmacophore modeling, molecular docking, synthesis and biological evaluation of novel VEGFR-2, FGFR-1, and BRAF multi-kinase inhibitors” (BMC Chemistry, 2024).

What was measured:
Test in all cases: NCI SRB growth inhibition (single dose 10 µM / five-dose)
Format in all cases: cell-based, human
NCI-H460 = details: Homo sapiens; NCI-H460 (Non-small cell lung cancer), 10 µM; read-out: GI%
Procedure, shortened: (§1)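 Seeding varied with cell doubling time (5000–40,000 cells/well). Dilutions were 10-fold or ½ log, five levels in total. Sulforhodamine B staining (0.4% w/v, 10 min, room temperature) of TCA-fixed cells measured growth.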

SF-295 = details: Homo sapiens; SF-295 (CNS cancer), 10 µM; read-out: GI%
Procedure, shortened: as §1

HCC-2998 = details: Homo sapiens; HCC-2998 (Colon cancer), 10 µM; read-out: GI%
Procedure, shortened: as §1

A498 = details: Homo sapiens; A498 (Renal cancer), 10 µM; read-out: GI%
Procedure, shortened: as §1

OVCAR-5 = details: Homo sapiens; OVCAR-5 (Ovarian cancer), 10 µM; read-out: GI%
Procedure, shortened: as §1

SW-620 = details: Homo sapiens; SW-620 (Colon cancer), 10 µM; read-out: GI%
Procedure, shortened: as §1

K-562 = details: Homo sapiens, K562; K-562 (Leukemia), 10 µM; read-out: GI%
Procedure, shortened: as §1

T-47D = details: Homo sapiens, T47D; T-47D (Breast cancer), 10 µM; read-out: GI%
Procedure, shortened: as §1

A549/ATCC = details: Homo sapiens; A549/ATCC (Non-small cell lung cancer), 10 µM; read-out: GI%
Procedure, shortened: as §1

MALME-3 M = details: Homo sapiens; MALME-3 M (Melanoma), 10 µM; read-out: GI%
Procedure, shortened: as §1

MCF7 = details: Homo sapiens; MCF7 (Breast cancer), 10 µM; read-out: GI%
Procedure, shortened: as §1

UACC-62 = details: Homo sapiens; UACC-62 (Melanoma), 10 µM; read-out: GI%
Procedure, shortened: as §1

HS 578 T = details: Homo sapiens; HS 578 T (Breast cancer), 10 µM; read-out: GI%
Procedure, shortened: as §1

COLO 205 = details: Homo sapiens; COLO 205 (Colon cancer), 10 µM; read-out: GI%
Procedure, shortened: as §1

CCRF-CEM = details: Homo sapiens; CCRF-CEM (Leukemia), 10 µM; read-out: GI%
Procedure, shortened: as §1

SK-MEL-2 = details: Homo sapiens; SK-MEL-2 (Melanoma), 10 µM; read-out: GI%
Procedure, shortened: as §1

RPMI-8226 = details: Homo sapiens; RPMI-8226 (Leukemia), 10 µM; read-out: GI%
Procedure, shortened: as §1

TK-10 = details: Homo sapiens; TK-10 (Renal cancer), 10 µM; read-out: GI%
Procedure, shortened: as §1

OVCAR-8 = details: Homo sapiens; OVCAR-8 (Ovarian cancer), 10 µM; read-out: GI%
Procedure, shortened: as §1

OVCAR-3 = details: Homo sapiens; OVCAR-3 (Ovarian cancer), 10 µM; read-out: GI%
Procedure, shortened: as §1

UACC-257 = details: Homo sapiens; UACC-257 (Melanoma), 10 µM; read-out: GI%
Procedure, shortened: as §1

NCI-H23 = details: Homo sapiens; NCI-H23 (Non-small cell lung cancer), 10 µM; read-out: GI%
Procedure, shortened: as §1

PC-3 = details: Homo sapiens; PC-3 (Prostate cancer), 10 µM; read-out: GI%
Procedure, shortened: as §1

SK-MEL-28 = details: Homo sapiens; SK-MEL-28 (Melanoma), 10 µM; read-out: GI%
Procedure, shortened: as §1

IGROV1 = details: Homo sapiens, IGROV-1; IGROV1 (Ovarian cancer), 10 µM; read-out: GI%
Procedure, shortened: as §1

EKVX = details: Homo sapiens; EKVX (Non-small cell lung cancer), 10 µM; read-out: GI%
Procedure, shortened: as §1

SMILES	inhibition at 10 µM (NCI-H460)	inhibition at 10 µM (SF-295)	inhibition at 10 µM (HCC-2998)	inhibition at 10 µM (A498)	inhibition at 10 µM (OVCAR-5)	inhibition at 10 µM (SW-620)	inhibition at 10 µM (K-562)	inhibition at 10 µM (A549/ATCC)	inhibition at 10 µM (MALME-3 M)	inhibition at 10 µM (MCF7)	inhibition at 10 µM (UACC-62)	inhibition at 10 µM (HS 578 T)	inhibition at 10 µM (CCRF-CEM)	inhibition at 10 µM (RPMI-8226)	inhibition at 10 µM (TK-10)	inhibition at 10 µM (OVCAR-8)	inhibition at 10 µM (OVCAR-3)	inhibition at 10 µM (UACC-257)	inhibition at 10 µM (NCI-H23)	inhibition at 10 µM (PC-3)	further results
O=C(NN=Cc1cccc(O)c1)c1ccc2[nH]c(-c3ccccc3)nc2c1 [8b, N'-(3-Hydroxybenzylidene)-2-phenyl-1H-benzo[d]imidazole-5-carbohydrazide]	< 5%	< 5%	< 5%	< 5%	< 5%	< 5%	21.4%	< 5%	39.7%	43.1%	< 5%	< 5%	54.4%	9.59%	< 5%	10.3%	11.1%	< 5%	< 5%	11.8%	inhibition at 10 µM (T-47D): 50.9%; inhibition at 10 µM (COLO 205): < 5%; inhibition at 10 µM (SK-MEL-2): < 5%; inhibition at 10 µM (SK-MEL-28): < 5%; inhibition at 10 µM (IGROV1): 13%; inhibition at 10 µM (EKVX): 13.8%
COc1ccc(OC)c(C=NNC(=O)c2ccc3[nH]c(-c4ccccc4)nc3c2)c1 [8f, N'-(2,5-Dimethoxybenzylidene)-2-phenyl-1H-benzo[d]imidazole-5-carbohydrazide]	15.8%	31.4%	8.92%	< 5%	< 5%	30.3%	63%	17.2%	40.5%	54.1%	35.5%	49.9%	80.5%	81.3%	19%	52.6%	12.5%	< 5%	46.7%	55.5%	inhibition at 10 µM (SK-MEL-2): 16.7%; inhibition at 10 µM (SK-MEL-28): 29.1%; inhibition at 10 µM (IGROV1): 11%; inhibition at 10 µM (EKVX): 22.7%
COc1cc(C=NNC(=O)c2ccc3[nH]c(-c4ccccc4)nc3c2)cc(OC)c1OC [8g, 2-Phenyl-N'-(3,4,5-trimethoxybenzylidene)-1H-benzo[d]imidazole-5-carbohydrazide]	56.3%	54.1%	44.3%	< 5%	< 5%	37.9%	30.4%	29.3%	73.6%	86%	70.4%	51%	62%	86.9%	6.66%	48.7%	29.4%	54.3%	49.4%	37.9%	inhibition at 10 µM (SK-MEL-2): 21.8%; inhibition at 10 µM (SK-MEL-28): 40.4%; inhibition at 10 µM (IGROV1): 17%; inhibition at 10 µM (EKVX): 12.2%
COc1ccc(-c2nc3cc(C(=O)NN=Cc4cc(OC)c(OC)c(OC)c4)ccc3[nH]2)cc1 [8n, 2-(4-Methoxyphenyl)-N'-(3,4,5-trimethoxybenzylidene)-1H-benzo[d]imidazole-5-carbohydrazide]	< 5%	29.8%	< 5%	< 5%	< 5%	< 5%	23.7%	< 5%	76.8%	73.1%	68.5%	37.7%	38.8%	44.5%	< 5%	15%	< 5%	25.6%	10.8%	12.9%	inhibition at 10 µM (T-47D): 38.1%; inhibition at 10 µM (COLO 205): 33.7%; inhibition at 10 µM (SK-MEL-28): 31.4%; inhibition at 10 µM (IGROV1): < 5%; inhibition at 10 µM (EKVX): < 5%
COc1ccc(C=NNC(=O)c2ccc3[nH]c(-c4ccc(Cl)cc4)nc3c2)cc1O [8s, 2-(4-Chlorophenyl)-N'-(3-hydroxy-4-methoxybenzylidene)-1H-benzo[d]imidazole-5-carbohydrazide]	63.8%	85%	86.8%	< 5%	< 5%	69.6%	50.3%	7.66%	> 100%	84.9%	37.5%	86.9%	> 100%	> 100%	< 5%	43.2%	47.5%	24.6%	29.2%	56.5%	inhibition at 10 µM (SK-MEL-2): 76.1%; inhibition at 10 µM (SK-MEL-28): 70.8%; inhibition at 10 µM (IGROV1): < 5%; inhibition at 10 µM (EKVX): 37%
